Reference: ChEMBL document CHEMBL1201862, “PubChem BioAssay data set” (2004)
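Cells were grown in 96-well plates and exposed to each compound for 48 hours at five concentrations; endpoints were interpolated linearly between bracketing concentrations, or set to the highest concentration if not reached. At the GI50, growth is halved.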 Activity calls are given as the source filed them. Rule as the data show it: active = GI50 up to about 1.1 µM and inactive = higher.

Tests used:
Assay in all cases: growth of human tumour cells (NCI), 48 h
SF-295 = tested on: SF-295
ACHN = tested on: ACHN
NCI-H23 = tested on: NCI-H23
MDA-MB-435 = tested on: MDA-MB-435
SNB-19 = tested on: SNB-19
OVCAR-3 = tested on: OVCAR-3
SK-MEL-2 = tested on: SK-MEL-2
M14 = tested on: M14
IGROV-1 = tested on: IGROV-1
OVCAR-5 = tested on: OVCAR-5
MOLT-4 = tested on: MOLT-4
A498 = tested on: A498
U-251 = tested on: U-251
Malme-3M = tested on: Malme-3M
RPMI-8226 = tested on: RPMI-8226
SK-MEL-28 = tested on: SK-MEL-28
T47D = tested on: T47D
EKVX = tested on: EKVX
LOX IMVI = tested on: LOX IMVI
A549 = tested on: A549

Measured: GI50

CN(C)CCNc1c([N+](=O)[O-])sc2ccc(Cl)cc12
inactive: SF-295 17.6 µM | ACHN 6.01 µM | NCI-H23 23.2 µM | MDA-MB-435 88.5 µM | SNB-19 26.2 µM | OVCAR-3 > 100 µM | SK-MEL-2 33.5 µM | M14 > 100 µM | IGROV-1 26.1 µM | OVCAR-5 > 100 µM | MOLT-4 2.37 µM | A498 23.3 µM | U-251 18.3 µM | Malme-3M 26.9 µM | RPMI-8226 > 100 µM | SK-MEL-28 > 100 µM | T47D 23.6 µM | EKVX 44.7 µM | LOX IMVI 3.49 µM | A549 11.9 µM

CCOC(=O)C(=CNc1ccc(NC2=NCC(C)S2)cc1)C(=O)OCC (stereo not given)
inactive: SF-295 29.6 µM | ACHN 18.7 µM | NCI-H23 28.1 µM | MDA-MB-435 20.2 µM | SNB-19 37.8 µM | OVCAR-3 18.2 µM | SK-MEL-2 19.7 µM | M14 31.5 µM | IGROV-1 26.8 µM | OVCAR-5 > 100 µM | MOLT-4 3.15 µM | A498 28.8 µM | U-251 26.2 µM | Malme-3M 24.3 µM | RPMI-8226 9.48 µM | SK-MEL-28 20.8 µM | T47D 24.8 µM | EKVX 37.3 µM | LOX IMVI 30.1 µM | A549 35.6 µM

Cn1c(=O)c2nc(SCc3ccccn3)[nH]c2n(C)c1=S
inactive: SF-295 34.2 µM | ACHN > 100 µM | NCI-H23 > 100 µM | MDA-MB-435 > 100 µM | SNB-19 56 µM | OVCAR-3 > 100 µM | SK-MEL-2 52.8 µM | M14 > 100 µM | IGROV-1 > 100 µM | OVCAR-5 > 100 µM | MOLT-4 > 100 µM | A498 23.3 µM | U-251 46.7 µM | Malme-3M > 100 µM | RPMI-8226 > 100 µM | SK-MEL-28 > 100 µM | T47D 66.8 µM | EKVX 74 µM | LOX IMVI > 100 µM | A549 > 100 µM

COc1cc2c(cc1OC)C13CCN4CC5CCOC6CC(=O)N2C1C6C5CC43 (stereo not given)
inactive: SF-295 > 100 µM | ACHN > 100 µM | NCI-H23 > 100 µM | MDA-MB-435 > 100 µM | SNB-19 > 100 µM | OVCAR-3 > 100 µM | SK-MEL-2 > 100 µM | M14 > 100 µM | IGROV-1 > 100 µM | OVCAR-5 > 100 µM | MOLT-4 1.81 µM | A498 > 100 µM | U-251 > 100 µM | Malme-3M > 100 µM | RPMI-8226 > 100 µM | SK-MEL-28 > 100 µM | T47D > 100 µM | EKVX > 100 µM | LOX IMVI > 100 µM | A549 > 100 µM
